Results reported in ChEMBL document CHEMBL1135114, “Syntheses and bioactivities of novel carbamates combining platelet activating factor (PAF) receptor antagonist with thromboxane synthase inhibitor (TxSI)” (Bioorg Med Chem Lett, 2002).
pIC50: −log10 of the molar value.

What was measured:
[1] = tested on: Mus musculus; assay: Ability to protect mice from the lethal effect of Platelet activating factor on po administration of compound; type: functional
[2] = species on record: Oryctolagus cuniculus; assay: The compound was tested for inhibition of Platelet activating factor (PAF) induced platelet aggregation in rabbit platelet rich plasma; type: functional
[3] = tested on: Rattus norvegicus; assay: Inhibition of serum TXB2 production in the rats after intravenous administration; type: functional
[4] = tested on: Rattus norvegicus; assay: Inhibition of serum TXB2 production in the rats after peroral administration; type: functional; conditions: po
[5] = biological target: T1, Thromboxane-A synthase (Homo sapiens, UniProt P24557); assay: Thromboxane A2 synthase inhibitory activity was measured from inhibition of thromboxane B2 production in human platelet microsomes; set-up: species or system Microsome
T1 sequence (P24557 whole entry): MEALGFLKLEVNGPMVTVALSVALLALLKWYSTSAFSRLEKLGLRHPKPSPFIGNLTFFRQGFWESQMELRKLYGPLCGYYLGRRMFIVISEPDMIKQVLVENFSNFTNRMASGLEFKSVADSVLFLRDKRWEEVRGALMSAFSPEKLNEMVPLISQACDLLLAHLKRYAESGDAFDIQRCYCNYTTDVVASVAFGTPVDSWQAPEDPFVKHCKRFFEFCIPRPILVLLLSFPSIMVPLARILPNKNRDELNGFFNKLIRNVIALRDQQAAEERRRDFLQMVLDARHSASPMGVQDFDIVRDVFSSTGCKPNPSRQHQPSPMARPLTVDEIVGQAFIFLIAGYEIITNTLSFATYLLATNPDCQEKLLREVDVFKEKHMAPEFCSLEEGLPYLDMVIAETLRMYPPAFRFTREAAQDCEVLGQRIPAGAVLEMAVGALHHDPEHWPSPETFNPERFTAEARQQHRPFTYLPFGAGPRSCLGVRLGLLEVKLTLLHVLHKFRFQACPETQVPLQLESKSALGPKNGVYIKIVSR

[6] = tested on: Mus musculus; assay: Ability to protect mice from the lethal effect of Platelet activating factor on iv administration of compound; type: functional

Row | SMILES | ED50 [1] | pIC50 [2] | ED50 [3] | ED50 [4] | pIC50 [5] | ED50 [6]
1 | CCOC(=O)CCCC/[N+]([O-])=C(/c1cccnc1)c1cccc(COC(=O)N2CCc3c(sc4c3C(c3ccccc3Cl)=NC(C)c3nnc(C)n3-4)C2)c1 (stereo not drawn) | > 10 mg/kg | 7.39 | 0.1 mg/kg | > 10 mg/kg | 7.16 | 0.2 mg/kg
2 | CCOC(=O)CCCC/[N+]([O-])=C(/c1cccnc1)c1cccc(CN2CCc3c(sc4c3C(c3ccccc3Cl)=NC(C)c3nnc(C)n3-4)C2)c1 (stereo not drawn) | > 10 mg/kg | 7.33 | 0.1 mg/kg | > 10 mg/kg | 7.22 | 0.2 mg/kg
3 | O=C(O)/C=C/c1ccc(Cn2ccnc2)cc1 [OZAGREL] | – | – | 0.02 mg/kg | 0.1 mg/kg | – | –
4 | CCOC(=O)CCCC/[N+]([O-])=C(/c1cccnc1)c1cccc(CN2CCc3c(sc4c3C(c3ccccc3Cl)=NCc3nnc(C)n3-4)C2)c1 | > 10 mg/kg | 6.72 | 0.1 mg/kg | > 10 mg/kg | 7.17 | 0.8 mg/kg
5 | CCOC(=O)CCCC/[N+]([O-])=C(/c1cccnc1)c1cccc(COC(=O)N2CCc3c(sc4c3C(c3ccccc3Cl)=NCc3nnc(C)n3-4)C2)c1 | > 10 mg/kg | 6.86 | 0.1 mg/kg | > 10 mg/kg | 7.21 | 0.7 mg/kg
6 | O=C(O)CCCC/C=C(/c1ccccc1)c1cccnc1 [ISBOGREL] | – | – | 0.01 mg/kg | 0.05 mg/kg | – | –
